Experimental data from patent US12338270B2, “Pharmaceutical composition comprising polypeptide” (D&D Pharmatech Inc., priority 2018, dated 2025).
Positions of bridges follow the written chain, without caps; N, C: chain ends. Non-standard residues stand in square brackets, D forms with d. Residues, ends and D or L forms follow the SMILES beside them. No end group written: not given here. Aib = CC(C)(N)C(=O)O

What was measured:
[1] = target: human glucagon GLP-1 receptor (Homo sapiens, UniProt P43220); assay: cell-based
Method: Thereafter, the cells were incubated for 4 hours under conditions of a temperature of 37° C. in a CO2 incubator.

[2] = animal experiment on anti-obesity effect of Example 1; format: in vivo; details: no details
[3] = target: T1, Pancreatic lipase (Homo sapiens, UniProt P16233); details: background statement; cited from earlier work
T1 sequence (P16233 17-465): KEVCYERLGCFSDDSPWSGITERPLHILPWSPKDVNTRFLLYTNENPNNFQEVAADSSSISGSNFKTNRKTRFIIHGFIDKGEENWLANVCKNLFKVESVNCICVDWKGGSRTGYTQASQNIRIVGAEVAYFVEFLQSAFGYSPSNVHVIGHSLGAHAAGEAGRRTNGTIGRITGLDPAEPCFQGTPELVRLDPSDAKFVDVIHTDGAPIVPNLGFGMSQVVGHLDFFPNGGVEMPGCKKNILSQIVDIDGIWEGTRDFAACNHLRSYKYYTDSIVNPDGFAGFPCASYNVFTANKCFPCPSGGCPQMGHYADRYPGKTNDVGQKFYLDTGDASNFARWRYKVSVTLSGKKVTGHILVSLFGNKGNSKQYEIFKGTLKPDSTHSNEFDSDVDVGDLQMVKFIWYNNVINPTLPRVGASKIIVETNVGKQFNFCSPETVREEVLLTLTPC

[4] = test system: obesity animal model (C57BL/6 mice, 60% high-fat diet); assay: ipGTT in obesity model, Examples 2 and 6 (Experimental Example 6); format: in vivo; details: 2 g/kg glucose i.p. after 2 weeks of 20 nmol/kg s.c. once every other day; FIG. 6
Method: (§1) To check a preventing or therapeutic effect of the conjugates of Examples 2 and 6, which had different amino acid sequences, on obesity or diabetes, an animal model of obesity was prepared by feeding a 60% high-fat diet to normal C57BL/6 mice (approximately 6 weeks old) for approximately 24 weeks, and increasing the body weights of the mice to approximately 50 g in average. Thereafter, each of the conjugates of Examples 2 or 6 was administered by subcutaneous injection at a dose of 20 nmol/kg once every other day for 2 weeks. As the control, PBS was administered instead of the conjugates of Examples. For 2 weeks when the conjugates of Examples 2 or 6 were administered, changes in blood glucose with time were measured. Also, to perform an intraperitoneal glucose tolerance test (ipGTT), 2 g/kg of glucose was administered intraperitoneally after the 2-week administration of the drug, and changes in blood glucose with the elapse of time (0, 15, 30, 60, 90, and 120 minutes) were measured.

[5] = test system: obesity animal model (C57BL/6 mice, 60% high-fat diet); assay: blood glucose in obesity model, Examples 2 and 6 (Experimental Example 6); format: in vivo; details: 20 nmol/kg s.c. once every other day for 2 weeks; FIG. 5
Method: as §1

Chain of human glucagon GLP-1 receptor (P43220 24-463): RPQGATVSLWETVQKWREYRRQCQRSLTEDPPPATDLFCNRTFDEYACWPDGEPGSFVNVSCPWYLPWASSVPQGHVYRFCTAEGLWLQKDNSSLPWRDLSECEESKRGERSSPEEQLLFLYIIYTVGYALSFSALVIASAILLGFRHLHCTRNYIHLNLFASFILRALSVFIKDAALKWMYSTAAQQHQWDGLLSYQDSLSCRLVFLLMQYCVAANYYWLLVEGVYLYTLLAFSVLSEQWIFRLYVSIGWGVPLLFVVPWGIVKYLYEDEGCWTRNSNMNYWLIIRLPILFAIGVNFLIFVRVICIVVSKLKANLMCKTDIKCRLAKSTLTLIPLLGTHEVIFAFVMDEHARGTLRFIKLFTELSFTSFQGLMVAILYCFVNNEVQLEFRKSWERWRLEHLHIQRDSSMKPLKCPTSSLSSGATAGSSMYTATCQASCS

Compound: CSCC[C@H](NC(=O)[C@H](CC(C)C)NC(=O)[C@H](Cc1c[nH]c2ccccc12)NC(=O)[C@H](CCC(N)=O)NC(=O)[C@@H](NC(=O)[C@H](Cc1ccccc1)NC(=O)[C@H](CCC(=O)O)NC(=O)[C@@H]1CCCCNC(=O)CC[C@H](NC(=O)[C@H](CC(=O)O)NC(=O)[C@H](CC(C)C)NC(=O)[C@H](Cc2ccc(O)cc2)NC(=O)[C@H](CCCCN)NC(=O)[C@H](CO)NC(=O)[C@H](Cc2ccc(O)cc2)NC(=O)[C@H](CC(=O)O)NC(=O)[C@H](CO)NC(=O)[C@@H](NC(=O)[C@H](Cc2ccccc2)NC(=O)[C@@H](NC(=O)CNC(=O)[C@H](CCC(N)=O)NC(=O)C(C)(C)NC(=O)[C@@H](N)Cc2c[nH]cn2)[C@@H](C)O)[C@@H](C)O)C(=O)N[C@@H](CCC(N)=O)C(=O)N[C@@H](C)C(=O)N[C@@H](C)C(=O)N1)C(C)C)C(=O)N[C@@H](CC(N)=O)C(=O)N[C@H](C(=O)N[C@@H](CS)C(=O)O)[C@@H](C)O [Example 1] (H-H[Aib]QGTFTSDYSKYLDEQAAKEFVQWLMNTC-OH; lactam 16-20 (inferred); N-terminus and C-terminus assumed)
- EC50 [1]: 0.13 nM
- anti-obesity effect [2]: had an anti-obesity effect

Compound: CCCCCCCCCCC[C@@H](C[C@@H]1OC(=O)[C@H]1CCCCCC)OC(=O)[C@H](CC(C)C)NC=O [tetrahydrolipstatin (orlistat), tetrahydrolipstatin]
- inhibition of absorption of ingested fats [3]: approximately 30%

Compound: Example 6: Conjugate of polypeptide H(Aib)QGTFTSDYSKYLDEEAVKEFVQWLMNTC (SEQ ID NO. 4) and tri-branched mPEG-MAL (MW: 50 kDa) (H[Aib]QGTFTSDYSKYLDEEAVKEFVQWLMNTC; not fully specified (residue 30, bridges); printed as H(Aib)QGTFTSDYSKYLDEEAVKEFVQWLMNTC; also: conjugate with tri-branched mPEG-MAL 50 kDa)
- increase in blood glucose in ipGTT vs control [4]: an increase in blood glucose was significantly reduced
- level of blood glucose vs control [5]: a level of blood glucose was lowered
